{"source": "patent US20170056336A1", "about": "“CO-TARGETING ANDROGEN RECEPTOR SPLICE VARIANTS AND MTOR SIGNALING PATHWAY FOR THE TREATMENT OF CASTRATION-RESISTANT PROSTATE CANCER” (British Columbia Cancer Agency Branch, priority 2015, published 2017)", "key": {"[1]": {"tested_on": "mTOR and AR pathways in parental LNCaP cells", "assay": "Western blot analysis of mTOR and AR pathways in parental LNCaP cells", "type": "cell-based, human", "conditions": "BEZ-235 15 nM"}, "AR-V567": {"molecular_target": "T1, AR-V567 (Homo sapiens, UniProt P10275)", "T1 construct": "expressed in transfected cells; host or cells: Cos-1", "T1 sequence (P10275 with tags, fused parts or gaps limits assumed)": "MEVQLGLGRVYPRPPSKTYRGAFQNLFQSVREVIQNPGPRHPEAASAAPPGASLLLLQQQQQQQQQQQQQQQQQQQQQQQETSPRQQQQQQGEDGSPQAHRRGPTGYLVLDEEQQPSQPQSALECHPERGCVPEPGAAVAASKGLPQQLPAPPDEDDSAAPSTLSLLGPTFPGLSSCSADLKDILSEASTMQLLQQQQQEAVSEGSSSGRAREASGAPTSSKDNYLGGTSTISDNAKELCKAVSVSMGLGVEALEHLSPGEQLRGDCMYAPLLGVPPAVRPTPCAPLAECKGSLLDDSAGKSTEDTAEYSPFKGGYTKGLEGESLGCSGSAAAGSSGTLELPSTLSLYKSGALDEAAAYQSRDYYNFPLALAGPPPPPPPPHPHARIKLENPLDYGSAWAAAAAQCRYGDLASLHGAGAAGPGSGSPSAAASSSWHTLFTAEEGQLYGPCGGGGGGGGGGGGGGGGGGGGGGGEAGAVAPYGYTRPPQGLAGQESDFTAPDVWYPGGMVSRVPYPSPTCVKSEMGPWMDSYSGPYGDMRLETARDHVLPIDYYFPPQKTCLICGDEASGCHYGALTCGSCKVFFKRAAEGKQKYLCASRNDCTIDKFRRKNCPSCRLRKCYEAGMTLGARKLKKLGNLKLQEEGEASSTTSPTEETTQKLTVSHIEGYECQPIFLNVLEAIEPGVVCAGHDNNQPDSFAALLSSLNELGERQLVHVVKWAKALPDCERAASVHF", "assay": "PB-luciferase assay in Cos-1 cells transfected with AR-V567", "type": "cell-based", "conditions": "24 h, serum-free", "excerpt": "Ectopic protein levels of AR-V7 and AR-V567 in Cos-1 cells are shown relative to endogenous levels of FL-AR in LNCaP cells."}, "AR NTD [2]": {"molecular_target": "T2, AR NTD (Homo sapiens, UniProt P10275)", "T2 sequence (P10275 1-558)": "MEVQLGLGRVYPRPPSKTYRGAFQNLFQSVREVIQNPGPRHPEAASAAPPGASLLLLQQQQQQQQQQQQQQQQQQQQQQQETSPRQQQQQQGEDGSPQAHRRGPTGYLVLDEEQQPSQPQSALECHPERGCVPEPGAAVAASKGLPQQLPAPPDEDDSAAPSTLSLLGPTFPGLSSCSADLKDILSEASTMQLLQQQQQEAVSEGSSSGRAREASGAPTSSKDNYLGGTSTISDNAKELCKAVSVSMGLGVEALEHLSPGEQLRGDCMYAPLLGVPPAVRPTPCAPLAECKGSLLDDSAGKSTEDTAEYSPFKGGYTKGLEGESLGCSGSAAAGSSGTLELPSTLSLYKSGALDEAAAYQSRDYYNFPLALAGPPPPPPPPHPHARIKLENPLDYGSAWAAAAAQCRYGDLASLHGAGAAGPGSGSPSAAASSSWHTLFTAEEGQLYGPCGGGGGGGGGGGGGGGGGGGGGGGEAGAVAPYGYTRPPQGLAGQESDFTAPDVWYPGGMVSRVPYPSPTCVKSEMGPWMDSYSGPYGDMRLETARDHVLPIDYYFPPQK", "assay": "AR NTD transactivation assay in LNCaP cells", "type": "cell-based", "conditions": "24 h", "experimental": "(§1) Transactivation assays of the AR NTD were performed in LNCaP and LNCaP95 cells cotransfected with p5xGal4UAS-TATA-luciferase and AR NTD-Gal4DBD (FIG. 2D). […] LNCaP95 cells were harvested 24 h after the treatment of indicated compounds.\n(§2) The AR NTD is essential for full transcriptional activities (Quayle, S. N. et. al., PNAS 2007, 104, 1331-1336). In LNCaP cells, transactivation of the AR NTD can be induced with IL-6 or by stimulation of the PKA pathway with FSK. In LNCaP95 cells, there is high intrinsic activity of the AR NTD which cannot be further induced by stimulation of these pathways."}, "AR NTD [3]": {"molecular_target": "T2, AR NTD", "assay": "AR NTD transactivation assay in LNCaP95 cells", "type": "cell-based", "conditions": "24 h", "experimental": "as §1, §2"}, "LNCaP95 xenografts": {"tested_on": "LNCaP95 xenografts", "assay": "Western blot analyses of protein lysates from xenografts", "type": "in vivo, mice"}, "EGFR/Erb1": {"molecular_target": "EGFR/Erb1 (Homo sapiens, UniProt P00533)", "sequence (P00533 25-1210)": "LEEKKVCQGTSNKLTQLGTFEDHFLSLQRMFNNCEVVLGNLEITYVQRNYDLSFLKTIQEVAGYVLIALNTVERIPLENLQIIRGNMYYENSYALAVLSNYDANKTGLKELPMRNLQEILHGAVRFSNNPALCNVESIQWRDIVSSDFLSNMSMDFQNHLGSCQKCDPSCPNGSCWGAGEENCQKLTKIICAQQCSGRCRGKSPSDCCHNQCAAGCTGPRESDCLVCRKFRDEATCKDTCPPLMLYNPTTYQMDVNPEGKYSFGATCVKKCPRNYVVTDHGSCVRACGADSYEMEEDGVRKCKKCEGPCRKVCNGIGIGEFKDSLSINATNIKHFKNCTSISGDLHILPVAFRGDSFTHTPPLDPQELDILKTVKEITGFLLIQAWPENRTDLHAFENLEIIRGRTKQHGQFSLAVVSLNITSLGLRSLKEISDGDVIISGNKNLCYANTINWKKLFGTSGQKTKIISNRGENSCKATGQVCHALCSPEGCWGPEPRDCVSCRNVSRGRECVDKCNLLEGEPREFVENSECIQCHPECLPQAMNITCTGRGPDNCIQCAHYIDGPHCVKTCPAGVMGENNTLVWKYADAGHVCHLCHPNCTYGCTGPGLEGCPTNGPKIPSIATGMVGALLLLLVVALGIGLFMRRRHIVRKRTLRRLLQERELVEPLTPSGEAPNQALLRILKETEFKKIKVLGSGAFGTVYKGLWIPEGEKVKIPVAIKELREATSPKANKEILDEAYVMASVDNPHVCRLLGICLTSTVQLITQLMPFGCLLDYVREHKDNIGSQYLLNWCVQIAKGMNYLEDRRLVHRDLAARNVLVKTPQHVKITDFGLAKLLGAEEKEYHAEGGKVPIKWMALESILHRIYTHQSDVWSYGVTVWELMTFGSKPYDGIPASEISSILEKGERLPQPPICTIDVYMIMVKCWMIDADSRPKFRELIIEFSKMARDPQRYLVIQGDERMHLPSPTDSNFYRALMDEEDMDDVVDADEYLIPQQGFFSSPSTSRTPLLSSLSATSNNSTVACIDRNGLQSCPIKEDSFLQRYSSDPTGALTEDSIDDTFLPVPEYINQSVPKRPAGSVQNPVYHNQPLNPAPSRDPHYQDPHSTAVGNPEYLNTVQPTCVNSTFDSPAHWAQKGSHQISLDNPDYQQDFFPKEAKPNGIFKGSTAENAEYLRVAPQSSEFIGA", "conditions": "higher concentrations; read-out: concentration inhibiting EGFR/Erb1; cited from earlier work"}, "CDK1": {"molecular_target": "CDK1 (Homo sapiens, UniProt P06493)", "sequence (P06493 whole entry, species assumed)": "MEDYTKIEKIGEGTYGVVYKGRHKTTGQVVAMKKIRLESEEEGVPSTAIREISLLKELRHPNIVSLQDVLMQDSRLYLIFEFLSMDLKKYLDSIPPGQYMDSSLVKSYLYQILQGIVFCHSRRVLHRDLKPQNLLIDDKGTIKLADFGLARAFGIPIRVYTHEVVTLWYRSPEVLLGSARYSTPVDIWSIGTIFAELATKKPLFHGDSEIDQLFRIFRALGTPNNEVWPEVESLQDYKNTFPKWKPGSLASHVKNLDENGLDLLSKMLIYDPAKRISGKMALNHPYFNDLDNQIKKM", "sequence (P14635 whole entry partner, species assumed)": "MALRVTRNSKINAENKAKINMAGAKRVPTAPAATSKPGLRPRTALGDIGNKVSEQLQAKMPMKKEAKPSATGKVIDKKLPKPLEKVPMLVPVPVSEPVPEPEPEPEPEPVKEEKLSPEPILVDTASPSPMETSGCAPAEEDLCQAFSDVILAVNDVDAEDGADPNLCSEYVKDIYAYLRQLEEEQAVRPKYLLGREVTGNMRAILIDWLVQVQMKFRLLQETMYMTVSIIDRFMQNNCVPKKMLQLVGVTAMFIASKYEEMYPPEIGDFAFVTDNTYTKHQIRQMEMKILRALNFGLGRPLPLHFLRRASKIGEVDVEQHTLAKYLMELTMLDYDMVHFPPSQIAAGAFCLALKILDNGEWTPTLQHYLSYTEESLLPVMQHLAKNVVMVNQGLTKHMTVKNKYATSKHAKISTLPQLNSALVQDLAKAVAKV", "conditions": "higher concentrations; read-out: concentration inhibiting CDK1; cited from earlier work"}, "[4]": {"conditions": "harvested tumors, Compound A 100 mg/kg, BEZ-235 5 mg/kg"}, "[5]": {"conditions": "xenografts harvested 1 h after last treatment, BEZ-235 5 mg/kg"}, "[6]": {"conditions": "BEZ-235 orally daily at 5 mg/kg body weight"}}}
{"compound": "Cn1c(=O)n(-c2ccc(C(C)(C)C#N)cc2)c2c3cc(-c4cnc5ccccc5c4)ccc3ncc21", "note": "[BEZ-235, 2-methyl-2-[4-(3-methyl-2-oxo-8-quinolin-3-ylimidazo[4,5-c]quinolin-1-yl)phenyl]propanenitrile]", "values": [{"measurement": "pAkt", "setting": "[1]; LNCaP cells", "result": "no effect"}, {"measurement": "levels of FL-AR", "setting": "[1]; parental LNCaP cells, absence of androgen", "result": "increased"}, {"measurement": "PSA protein", "setting": "[1]; parental LNCaP cells, regardless of androgen status", "result": "increased"}, {"measurement": "transcriptional activity of AR-V567", "setting": "AR-V567", "result": "no effect"}, {"measurement": "AR-NTD transactivation induced by FSK", "setting": "AR NTD [2]; FSK 50 uM", "result": "no effect"}, {"measurement": "AR-NTD transactivation induced by IL-6", "setting": "AR NTD [2]; IL-6 50 ng/ml", "result": "significantly inhibited"}, {"measurement": "intrinsic activity of AR NTD", "setting": "AR NTD [3]", "result": "no effect"}, {"measurement": "levels of p4EBP1", "setting": "LNCaP95 xenografts; harvested tumors, normalized to total 4EBP1", "result": "no significant change"}, {"measurement": "levels of pAkt", "setting": "LNCaP95 xenografts; harvested tumors, normalized to total Akt", "result": "no significant change"}, {"measurement": "protein levels of UBE2C", "setting": "LNCaP95 xenografts; [4]", "result": "reduced"}, {"measurement": "protein levels of pS6", "setting": "LNCaP95 xenografts; [4]", "result": "reduced"}, {"measurement": "protein levels of FKBP5", "setting": "LNCaP95 xenografts; in vivo, monotherapies", "result": "reduced"}, {"measurement": "protein levels of AR-V7", "setting": "LNCaP95 xenografts; [5]", "result": "reduced"}, {"measurement": "protein levels of FL-AR", "setting": "LNCaP95 xenografts; [5]", "result": "reduced"}, {"measurement": "mortality of the animals", "setting": "BEZ-235 45 mg/kg body weight", "result": 66, "unit": "%"}, {"measurement": "mTOR in tumors", "setting": "[6]", "result": "sufficient to block"}, {"measurement": "pAkt in tumors", "setting": "[6]", "result": "not"}, {"measurement": "toxicity", "setting": "[6]", "result": "non-toxic"}, {"measurement": "IC50", "setting": "EGFR/Erb1", "result": "> 8.5", "unit": "µM"}, {"measurement": "IC50", "setting": "CDK1", "result": "> 10", "unit": "µM"}]}
